From US8247211B2, “Glycopeptide antibiotics” (American Cyanamid Company, priority 2001, dated 2012)
In brackets after ≈: the same amount, converted by molar mass.

Tests used:
Assay in all cases: In vitro antibacterial evaluation: minimum inhibitory concentration (MIC), broth dilution method
Type in all cases: cell-based
Enterococcus sp. = settings: 18 hours at 35° C.
Procedure: (§1) The minimum inhibitory concentration (MIC), the lowest concentration of the antibiotic which inhibits growth of the test organism, is determined by the broth dilution method using Muller-Hinton II […] (Baltimore Biological Laboratories) following the recommendations of the National Committee for Clinical Laboratory Standards [Methods for dilution antimicrobial susceptibility tests for bacteria that grow aerobically, approved standard M7-A2, National Committee for Clinical Laboratory Standards, Villanova, Pa].
(§2) An inoculum level of 5×10^5 CFU/mL, and a range of antibiotic concentrations (64-0.06 μg/mL) is used. […] The test organisms include a spectrum of Gram-positive bacteria comprised of Staphylococcus sp., Streptococcus sp. and Enterococcus sp. These organisms include recent clinical isolates that are resistant to methicillin, penicillin and/or vancomycin.

Escherichia coli = settings: 18 hours at 35° C.
Procedure: as §1, §2

Streptococcus sp. = settings: 18 hours at 35° C.
Procedure: as §1, §2

Staphylococcus sp. = tested on: Staphylococcus sp.
Procedure: as §1, §2

[1] = broth dilution, inoculum 5×10^5 CFU/mL

Structure (SMILES): N=C1NCC(C(O)C2NC(=O)C(CC3CCC(OC4OC(CO)C(OC5OC6COC7(OC6C(O)C5O)C5CC6CC(C5)CC7C6)C(O)C4O)CC3)NC(=O)C(CC3CCCCC3)NC(=O)CNC(=O)C(CO)NC(=O)C(C(O)C3CNC(=N)N3C3OC(CO)C(O)C(O)C3O)NC2=O)N1 (stereo not drawn) [Example 223]
- MIC Enterococcus avium (GC 4558) (Enterococcus sp.; Enterococcus avium (GC 4558)): 64 µg/mL (≈ 44.9 µM)
- MIC Enterococcus faecalis (ATCC 29212) (Enterococcus sp.; Enterococcus faecalis (ATCC 29212)): >64 µg/mL
- MIC Enterococcus faecalis (GC 2242) (Enterococcus sp.; Enterococcus faecalis (GC 2242)): >64 µg/mL
- MIC Enterococcus faecalis (GC 2691) (Enterococcus sp.; Enterococcus faecalis (GC 2691)): >64 µg/mL
- MIC Enterococcus faecalis (GC 3059) (Enterococcus sp.; Enterococcus faecalis (GC 3059)): >64 µg/mL
- MIC Enterococcus faecalis (GC 4552) (Enterococcus sp.; Enterococcus faecalis (GC 4552)): >64 µg/mL
- MIC Enterococcus faecalis (GC 4553) (Enterococcus sp.; Enterococcus faecalis (GC 4553)): 64 µg/mL (≈ 44.9 µM)
- MIC Enterococcus faecalis (GC 4554) (Enterococcus sp.; Enterococcus faecalis (GC 4554)): >64 µg/mL
- MIC Enterococcus faecalis (GC 6189) (Enterococcus sp.; Enterococcus faecalis (GC 6189)): >64 µg/mL
- MIC Enterococcus faecium (GC 2243) (Enterococcus sp.; Enterococcus faecium (GC 2243)): >64 µg/mL
- MIC Enterococcus faecium (GC 4556) (Enterococcus sp.; Enterococcus faecium (GC 4556)): >64 µg/mL
- MIC Enterococcus faecium (GC 4557) (Enterococcus sp.; Enterococcus faecium (GC 4557)): 64 µg/mL (≈ 44.9 µM)
- MIC Enterococcus avium (GC 4558) (Enterococcus sp.; [1]): 64 µg/mL (≈ 44.9 µM)
- MIC Enterococcus faecalis (ATCC 29212) (Enterococcus sp.; [1]): >64 µg/mL
- MIC Enterococcus faecalis (GC 2242) (Enterococcus sp.; [1]): >64 µg/mL
- MIC Enterococcus faecalis (GC 2691) (Enterococcus sp.; [1]): >64 µg/mL
- MIC Enterococcus faecalis (GC 3059) (Enterococcus sp.; [1]): >64 µg/mL
- MIC Enterococcus faecalis (GC 4552) (Enterococcus sp.; [1]): >64 µg/mL
- MIC Enterococcus faecalis (GC 4553) (Enterococcus sp.; [1]): 64 µg/mL (≈ 44.9 µM)
- MIC Enterococcus faecalis (GC 4554) (Enterococcus sp.; [1]): >64 µg/mL
- MIC Enterococcus faecalis (GC 6189) (Enterococcus sp.; [1]): >64 µg/mL
- MIC Enterococcus faecium (GC 2243) (Enterococcus sp.; [1]): >64 µg/mL
- MIC Enterococcus faecium (GC 4556) (Enterococcus sp.; [1]): >64 µg/mL
- MIC Enterococcus faecium (GC 4557) (Enterococcus sp.; [1]): 64 µg/mL (≈ 44.9 µM)
- MIC Escherichia coli (ATCC 25922) (Escherichia coli; Escherichia coli (ATCC 25922)): >64 µg/mL
- MIC Escherichia coli (GC 4559) (Escherichia coli; Escherichia coli (GC 4559)): >64 µg/mL
- MIC Escherichia coli (GC 4560) (Escherichia coli; Escherichia coli (GC 4560)): 32 µg/mL (≈ 22.4 µM)
- MIC Streptococcus agalactiae (GC 4564) (Streptococcus sp.; Streptococcus agalactiae (GC 4564)): >64 µg/mL
- MIC Streptococcus pneumoniae (ATCC 6301) (Streptococcus sp.; Streptococcus pneumoniae (ATCC 6301)): 64 µg/mL (≈ 44.9 µM)
- MIC Streptococcus pneumoniae (GC 1894) (Streptococcus sp.; Streptococcus pneumoniae (GC 1894)): 32 µg/mL (≈ 22.4 µM)
- MIC Streptococcus pneumoniae (GC 4565) (Streptococcus sp.; Streptococcus pneumoniae (GC 4565)): >64 µg/mL
- MIC Streptococcus pyogenes (GC 4563) (Streptococcus sp.; Streptococcus pyogenes (GC 4563)): 64 µg/mL (≈ 44.9 µM)
- MIC Streptococcus agalactiae (GC 4564) (Streptococcus sp.; [1]): >64 µg/mL
- MIC Streptococcus pneumoniae (ATCC 6301) (Streptococcus sp.; [1]): 64 µg/mL (≈ 44.9 µM)
- MIC Streptococcus pneumoniae (GC 1894) (Streptococcus sp.; [1]): 32 µg/mL (≈ 22.4 µM)
- MIC Streptococcus pneumoniae (GC 4565) (Streptococcus sp.; [1]): >64 µg/mL
- MIC Streptococcus pyogenes (GC 4563) (Streptococcus sp.; [1]): 64 µg/mL (≈ 44.9 µM)
- MIC Staphylococcus aureus (ATCC 29213) (Staphylococcus sp.; strain ATCC 29213): >64 µg/mL
- MIC Staphylococcus aureus (GC 1131) (Staphylococcus sp.; strain GC 1131): >64 µg/mL
- MIC Staphylococcus aureus (GC 3051) (Staphylococcus sp.; strain GC 3051): 64 µg/mL (≈ 44.9 µM)
- MIC Staphylococcus aureus (GC 3053) (Staphylococcus sp.; strain GC 3053): >64 µg/mL
- MIC Staphylococcus aureus (GC 4541) (Staphylococcus sp.; strain GC 4541): 64 µg/mL (≈ 44.9 µM)
- MIC Staphylococcus aureus (GC 4542) (Staphylococcus sp.; strain GC 4542): 64 µg/mL (≈ 44.9 µM)
- MIC Staphylococcus aureus-SMITH (GC 4543) (Staphylococcus sp.; strain GC 4543): 64 µg/mL (≈ 44.9 µM)
- MIC Staphylococcus aureus (GC 4544) (Staphylococcus sp.; strain GC 4544): 64 µg/mL (≈ 44.9 µM)
- MIC Staphylococcus aureus (GC 4545) (Staphylococcus sp.; strain GC 4545): 64 µg/mL (≈ 44.9 µM)
- MIC Staphylococcus haemolyticus (GC 4546) (Staphylococcus sp.; strain GC 4546): 64 µg/mL (≈ 44.9 µM)
- MIC Coagulase Negative Staphylococcus (GC 4547) (Staphylococcus sp.; strain GC 4547): 64 µg/mL (≈ 44.9 µM)
- MIC Coagulase Negative Staphylococcus (GC 4548) (Staphylococcus sp.; strain GC 4548): 64 µg/mL (≈ 44.9 µM)
- MIC Coagulase Negative Staphylococcus (GC 4549) (Staphylococcus sp.; strain GC 4549): 64 µg/mL (≈ 44.9 µM)
- MIC Coagulase Negative Staphylococcus (GC 4551) (Staphylococcus sp.; strain GC 4551): 64 µg/mL (≈ 44.9 µM)
